Measurements: PMC11645656, “MRGPRX4 mediates phospho-drug associated pruritus in a humanized mouse model” (Science translational medicine, 2024)
Where “and” joins values, the source holds several entries; their conditions need not be identical. Identical values can stand only once.

Assays:
MRGPRX4 (S83) = molecular target: T1, MRGPRX4 (S83) (Homo sapiens, UniProt Q96LA9, L83S); test: EC50 determination, intracellular calcium mobilization in MRGPRX4 stably expressed HEK293 cells (FLIPR Calcium 5, Flexstation-3); format: cell-based; settings: for Fig. 1D dose-response, calcium response at Concentration (M): individual replicate values
T1 construct: expressed in transfected cells
T1 sequence (Q96LA9 whole entry L83S): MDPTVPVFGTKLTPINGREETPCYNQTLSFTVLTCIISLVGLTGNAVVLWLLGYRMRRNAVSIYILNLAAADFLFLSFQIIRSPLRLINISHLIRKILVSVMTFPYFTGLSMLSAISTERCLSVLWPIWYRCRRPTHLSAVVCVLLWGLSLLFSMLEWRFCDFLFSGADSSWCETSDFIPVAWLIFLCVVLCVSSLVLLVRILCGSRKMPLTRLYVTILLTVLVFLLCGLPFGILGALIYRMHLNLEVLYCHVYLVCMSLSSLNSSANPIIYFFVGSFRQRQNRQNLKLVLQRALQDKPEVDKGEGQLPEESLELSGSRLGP
Method in brief: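 HEK293 cells stably expressing receptor (parental HEK293 alongside) loaded with Calcium 5 dye in HBSS/20 mM HEPES, pH 7.4, 1 h at 37 °C, then compounds added. Response = peak minus pre-drug baseline, triplicates averaged; EC50 from 4PL fit.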

NP2-WT mice = test: Itch behavioral study (scratching bouts after subcutaneous nape injection) in littermate control NP2-WT mice; format: in vivo; settings: 30 min after injection of 50 μl 10 mM into the nape, each cell one mouse
HTLA cells = test: PRESTO-Tango β-arrestin recruitment assay, parental HTLA cells without MRGPRX4 (control, fig. S1); format: cell-based
Excerpt: Supplement NIHMS2038790-supplement-table.xlsx, sheet "fig. S1" | column: Concentration (M)

[1] = ref ClinicalTrials.gov Identifier: NCT00327392; cited from earlier work
[2] = test system: NP2-X4+ mice (MRGPRX4 in Mrgpra3+ NP2 sensory neurons); test: Itch behavioral study (scratching bouts after subcutaneous nape injection) in NP2-X4+ mice; format: in vivo, mouse

CC(C)c1cccc(C(C)C)c1OCOP(=O)(O)O [Fospropofol]
EC50 (MRGPRX4 (S83)): 3.78 nM
Fig. 1D dose-response, calcium response at Concentration (M) (MRGPRX4 (S83); 390.6 pM): 1.887 and 7.675 and 17.3467 and 28.1293 and 25.4823 and 35.7983 and -3.6673 and 11.7957 and 11.3767
Fig. 1D dose-response, calcium response at Concentration (M) (MRGPRX4 (S83); 781.2 pM): 26.5827 and 9.949 and 22.6817 and 47.5243 and 43.9493 and 46.7693 and 30.8217 and 49.6317 and 45.8127
Fig. 1D dose-response, calcium response at Concentration (M) (MRGPRX4 (S83); 1.5625e-9 M): 74.3117 and 80.9857 and 81.1437 and 128.989 and 99.4103 and 141.332 and 62.3957 and 66.3277 and 70.4507
Fig. 1D dose-response, calcium response at Concentration (M) (MRGPRX4 (S83); 3.125e-9 M): 97.9827 and 97.6007 and 113.013 and 161.554 and 132.577 and 128.455 and 112.923 and 102.472 and 92.5087
Fig. 1D dose-response, calcium response at Concentration (M) (MRGPRX4 (S83); 6.25e-9 M): 129.465 and 134.099 and 141.914 and 173.201 and 168.912 and 206.791 and 144.704 and 134.885 and 117.377
Fig. 1D dose-response, calcium response at Concentration (M) (MRGPRX4 (S83); 1.25e-8 M): 164.422 and 179.515 and 157.084 and 234.098 and 206.128 and 222.155 and 172.571 and 101.371 and 130.276
Fig. 1D dose-response, calcium response at Concentration (M) (MRGPRX4 (S83); 2.5e-8 M): 193.287 and 213.245 and 222.211 and 313.329 and 290.374 and 297.501 and 184.525 and 188.459 and 188.843
Fig. 1D dose-response, calcium response at Concentration (M) (MRGPRX4 (S83); 5e-8 M): 209.793 and 233.98 and 204.052 and 317.065 and 340.21 and 331.701 and 193.877 and 181.409 and 188.341
Fig. 1D dose-response, calcium response at Concentration (M) (MRGPRX4 (S83); 1e-7 M): 231.301 and 222.41 and 222.053 and 368.09 and 352.14 and 353.772 and 173.973 and 182.603 and 208.392
Fig. 1D dose-response, calcium response at Concentration (M) (MRGPRX4 (S83); 2e-7 M): 241.094 and 221.904 and 183.593 and 346.939 and 358.59 and 369.748 and 151.356 and 187.22 and 148.627
MRGPRX4 agonist activity / calcium signaling (MRGPRX4 (S83); MRGPRX4-expressing HEK293 cells): potent agonist of MRGPRX4
Hill coefficient (MRGPRX4 (S83); dose-response curve fitting, table S1): 0.800
Scratching bouts of individual animals (NP2-WT mice): 2 and 38 and 3 and 10 and 15 and 17 and 76 and 40 and 18 and 43
PRESTO-Tango response (fig. S1), single replicate (HTLA cells; concentration 1.95e-8 M): 0.00694 and 0.004644 and 0.006153 and 0.00965 and 0.002832 and 0.003328 and 0.008458 and 0.007173 and 0.001142
PRESTO-Tango response (fig. S1), single replicate (HTLA cells; concentration 3.91e-8 M): 0.00458 and 0.005779 and 0.004441 and 0.006153 and 0.01503 and 0.00701 and 0.000445 and 0.01011 and 0.01094
PRESTO-Tango response (fig. S1), single replicate (HTLA cells; concentration 7.81e-8 M): 0.003343 and 0.006009 and 0.009902 and 0.005737 and 0.003469 and 0.004602 and 0.006927 and 0.00283 and 0.006775
PRESTO-Tango response (fig. S1), single replicate (HTLA cells; concentration 1.56e-7 M): 0.003508 and 0.005703 and 0.009009 and 0.008984 and 0.006514 and 0.007694 and 0.009731 and 0.002935 and 0.00804
PRESTO-Tango response (fig. S1), single replicate (HTLA cells; concentration 3.13e-7 M): 0.002922 and 0.004925 and 0.007537 and 0.0115 and 0.004508 and 0.006726 and 0.004052 and 0.005477 and 0.00953
PRESTO-Tango response (fig. S1), single replicate (HTLA cells; concentration 6.25e-7 M): 0.004976 and 0.01037 and 0.009311 and 0.01735 and 0.01013 and 0.008402 and 0.01193 and 0.01132 and 0.007015
PRESTO-Tango response (fig. S1), single replicate (HTLA cells; concentration 1.25e-6 M): 0.005116 and 0.008433 and 0.01261 and 0.0248 and 0.006302 and 0.01317 and 0.01357 and 0.000979 and 0.02066
PRESTO-Tango response (fig. S1), single replicate (HTLA cells; concentration 2.5e-6 M): 0.004708 and 0.01187 and 0.01433 and 0.0357 and 0.005924 and 0.01747 and 0.01767 and 0.01738 and 0.009944
PRESTO-Tango response (fig. S1), single replicate (HTLA cells; concentration 5e-6 M): 0.006149 and 0.02356 and 0.0209 and 0.04204 and 0.009157 and 0.0186 and 0.01895 and 0.003902 and 0.03736
PRESTO-Tango response (fig. S1), single replicate (HTLA cells; concentration 1e-5 M): 0.007859 and 0.01771 and 0.01368 and 0.04592 and 0.005971 and 0.02299 and 0.000906 and 0.03405 and 0.02211
PRESTO-Tango response (fig. S1), single replicate (HTLA cells; concentration 2e-5 M): 0.005575 and 0.02041 and 0.01412 and 0.04838 and 0.01541 and 0.027 and 0.00299 and 0.03805 and 0.0244
Patients who reported paresthesia [1]: 53.6%
Patients who reported pruritus [1]: 26.0%
Scratching / itch behavior, NP2-X4+ mice vs WT littermates ([2]; 50 μl 10 mM nape injection, 30 min): significantly increased scratching behavior
Scratching bouts of individual animals ([2]; NP2-X4+, 30 min after injection of 50 μl 10 mM into the nape, each cell one mouse): 79 (2×) and 60 and 28 and 56 and 5 and 40 and 132 and 49 and 4 and 42 and 59 and 43 and 52
